Assay results: patent US11261201B2 (priority 2018, dated 2022)
≈ marks a conversion by molar mass, not a printed value. Structures can show the parent of a compound that is named as a salt. Where two headings read alike, the source gives them in different places.

Experiments:
[1] = system: H37RvMA; test: Tuberculosis Alamar Blue/Resazurin assay (MIC); assay type: cell-based; conditions: read-out: WT H37Rv MTB Activity
[2] = system: A. baumannii; test: Gram negative MIC protocol (OD600, LB, 24 h); conditions: for MIC: Acinetobacter baumannii; for MIC A. baumannii LB Media: OD600
Experimental: (§1) Overnight bacterial cultures were grown in LB with no added antibiotics at 37° C. with shaking. A 1:1000 dilution of these cultures into LB was exposed to concentration gradients of compounds in 96-well plates (100 μL per well assay volume). Resulting plates were incubated at 37° C. for 24 h without shaking, and OD600 was measured at the end of the incubation. MICs were determined as the lowest concentrations at which OD600 remained at baseline.

[3] = system: E. coli; test: Gram negative MIC protocol (OD600, LB, 24 h); conditions: for MIC: Escherichia coli; for MIC E. coli delta-TolC LB Media / MIC WT E. coli LB Media: OD600
Experimental: as §1

[4] = Mycobacterium tuberculosis, H37RV
[5] = read-out: MIC A. baumannii LB Media, A. baumannii, LB media, 24 h, OD600
[6] = read-out: MIC E. coli delta-TolC LB Media, E. coli delta-TolC strain, LB media, 24 h, OD600
[7] = read-out: MIC WT E. coli LB Media, wild-type E. coli, LB media, 24 h, OD600
[8] = Mycobacterium tuberculosis, H37RV, WT H37Rv MTB
[9] = read-out: MIC E. coli delta-TolC LB Media, E. coli delta-TolC, LB media, OD600
[10] = read-out: MIC WT E. coli LB Media, WT E. coli, LB media, OD600
[11] = read-out: MIC A. baumannii LB Media

Compound	MIC [2, 5] [µM]	MIC [1, 8] [µM]	MIC [3, 9] [µM]	MIC [3, 10] [µM]	other results
Fc1ccc(C2CC2NCc2ccccc2)cc1F (stereo in doubt) [B211, (1S,2R)-N-benzyl-2-(3,4-difluorophenyl)cyclopropanamine hydrochloride]	300				MIC [1, 4]: > 150 µM; MIC [3, 6]: 300 µM; MIC [3, 7]: > 300 µM
CC(C)CCNCc1ccccc1 [B2]	> 150	> 150	> 150	> 150	
C1=C(CCNCc2ccncc2)CCCC1 [B3]	> 150	> 150	> 150	> 150	
C1=C(CCNCc2cccnc2)CCCC1 [B4]	> 150		> 150	> 150	MIC [1, 4]: > 150 µM
CC(CNCc1ccccc1)C1CCCC1 (stereo not shown) [B5]	> 150	> 150	> 150	> 150	
CCCCCCNCc1ccccc1 [B6]	> 150	> 150	> 150	> 150	
c1ccc(CNC2CCCCC2)cc1 [B7]	> 150	> 150	> 150	> 150	
CC(Cc1ccccc1)NCc1ccccc1 (stereo not shown) [B8]			> 150	> 150	MIC [1, 4]: > 150 µM; MIC [2, 11]: > 150 µM
c1ccc(CNCC2CCCCC2)cc1 [B9]	> 150	> 150	> 150	> 150	
Cc1ccc(CNCCC2=CCCCC2)cc1 [B10, 2-(cyclohex-1-en-1-yl)-N-(4-methylbenzyl)ethan-1-amine]	> 150	> 150	> 150	> 150	
Cc1cccc(CNCCC2=CCCCC2)c1 [B11, 2-(cyclohex-1-en-1-yl)-N-(3-methylbenzyl)ethan-1-amine]	> 150	> 150	> 150	> 150	
COc1ccc(CNCCC2=CCCCC2)cc1 [B12]	> 150	> 150	> 150	> 150	
Cc1ccccc1CNCCC1=CCCCC1 [B13, 2-(cyclohex-1-en-1-yl)-N-(2-methylbenzyl)ethan-1-amine]	150 (≈ 34.4 µg/mL)	> 150	55 (≈ 12.6 µg/mL)	90 (≈ 20.6 µg/mL)	
Fc1ccc(CNCCC2=CCCCC2)cc1 [B14]	> 150	> 150	> 150	> 150	
C1=C(CCNCc2ccncc2)CCCC1 [B15]					MIC ([1]; WT H37Rv MTB): >150 µM; MIC A. baumannii LB Media [2]: >150 µM; MIC E. coli delta-TolC LB Media [3]: >150 µM; MIC WT E. coli LB Media [3]: >150 µM
CCCC(C)NCc1ccccc1 (stereo not shown) [B16]	> 150	> 150	> 150	> 150	
Cl.c1ccc(CNCC2CCCCC2)cc1 [B17]					MIC ([1]; WT H37Rv MTB): >150 µM; MIC A. baumannii LB Media [2]: >150 µM; MIC E. coli delta-TolC LB Media [3]: >150 µM; MIC WT E. coli LB Media [3]: >150 µM
c1ccc(CNCC2(c3ccc4c(c3)OCO4)CC2)cc1 [B18]	> 150		> 150	> 150	MIC [1, 4]: > 150 µM
OC(CNCc1ccccc1)c1cccc2ccccc12 (stereo not shown) [B19]					MIC ([1]; WT H37Rv MTB): 150 µM (≈ 41.6 µg/mL); MIC A. baumannii LB Media [2]: >150 µM; MIC E. coli delta-TolC LB Media [3]: >150 µM; MIC WT E. coli LB Media [3]: >150 µM
CC(CC1CCCO1)NCc1ccccc1 (stereo not shown) [B20]	> 150	> 150	> 150	> 150	
Fc1cc(CCNCc2ccccc2)c2c(c1)COCO2 [B21]	> 150	> 150	> 150	> 150	
c1ccc(CNCC2Cc3ccccc32)cc1 (stereo not shown) [B22]	> 150	> 150	> 150	> 150	
c1ccc(CNCC2CCOc3ccccc32)cc1 (stereo not shown) [B23]	> 150	> 150	> 150	> 150	

Compound	MIC [2, 5] [µM]	MIC [1, 8] [µM]	MIC [3, 9] [µM]	MIC [3, 10] [µM]	other results
c1ccc(CNCCc2ccc3c(c2)CCO3)cc1 [B24]			> 150	> 150	MIC [1, 4]: > 150 µM; MIC [2, 11]: > 150 µM
c1ccc(CNCCC2CCOCC2)cc1 [B25]	> 150	> 150	> 150	> 150	
Cc1noc(C)c1CC(C)NCc1ccccc1 (stereo not shown) [B26]	> 150		> 150	> 150	MIC [1, 4]: > 150 µM
C1=C(CCNCc2ccccc2)c2ccccc2C1 [B27]	> 150	91 (≈ 22.7 µg/mL)	> 150	> 150	
COc1ccc(C(C)C(C)NCc2ccccc2)cc1 (stereo not shown) [B28]	> 150		> 150	> 150	MIC [1, 4]: > 150 µM
CC(CC1CCOCC1)NCc1ccccc1 (stereo not shown) [B29]	> 150	> 150	> 150	> 150	
c1ccc(CNCCC2CCC2)cc1 [B30]	> 150	> 150	> 150	> 150	
CC(CC1CCOC1)NCc1ccccc1 (stereo not shown) [B31]	> 150	> 150	> 150	> 150	
c1ccc(CNC2(C3CC3)CC2)cc1 [B32]	> 150	> 150	> 150	> 150	
CC(CC1CCC1)NCc1ccccc1 (stereo not shown) [B33]			> 150	> 150	MIC [1, 4]: > 150 µM; MIC [2, 11]: > 150 µM
CC(CC1CC1)NCc1ccccc1 (stereo not shown) [B34]	> 150	> 150	> 150	> 150	
CC(NCc1ccccc1)C1CCCC1 (stereo not shown) [B35]	> 150	> 150	> 150	> 150	
CC(NCCC1=CCCCC1)c1ccccc1 (stereo not shown) [B36]	> 150	> 150	> 150	> 150	
OC1(CNCc2ccccc2)C2C3CC4C5C3CC2C5C41 (stereo not shown) [B37]	> 150	150 (≈ 42.2 µg/mL)	> 150	> 150	
CC(CC1CCCC1)NCc1ccccc1 (stereo not shown) [B38]			90 (≈ 19.6 µg/mL)	91 (≈ 19.8 µg/mL)	MIC [1, 4]: > 150 µM; MIC [2, 11]: 150 µM (≈ 32.6 µg/mL)
C1=C(CCNCc2ccccc2)CCC1 [B39]	> 150	> 150	> 150	> 150	
c1ccc(CNCCC2CCOC2)cc1 (stereo not shown) [B40]	> 150	> 150	> 150	> 150	
CC(Cc1cnn(C)c1)NCc1ccccc1 (stereo not shown) [B41]	> 150		> 150	> 150	MIC [1, 4]: > 150 µM
c1ccc(CNCCc2cccc3cccnc23)cc1 [B42]	> 150	> 150	> 150	> 150	
c1ccc(CNCC2CC3CCC2C3)cc1 (stereo not shown) [B43]	> 150	> 150	> 150	> 150	
c1ccc(CNCCC2CCSCC2)cc1 [B332]	> 150				MIC [3, 6]: > 150 µM; MIC [3, 7]: > 150 µM
O=C1Cc2ccccc2CN1CCC1CCCCC1 [B379]	> 150				MIC [3, 6]: 150 µM (≈ 38.6 µg/mL); MIC [3, 7]: > 150 µM
